Measurements: ChEMBL document CHEMBL3817770, “Design and synthesis of 5-aminolaevulinic acid/3-hydroxypyridinone conjugates for photodynamic therapy: enhancement of protoporphyrin IX production and photo-toxicity in tumor cells” (Medchemcomm, 2016)
The source made the active and inactive calls. No cut-off for these calls is given here.

Columns and labels:
[1] = test system: LNCaP; test: Phototoxicity in human LNCAP cells assessed as cell survival at 100 uM incubated for 4 hrs followed by irradiation with blue light for 5 mins in presence of CP94 by MTT assay; type: functional; settings: light or radiation study, read-out: Survival
[2] = test system: MDA-MB-435; test: Phototoxicity in human MDA-MB-435 cells assessed as cell survival at 250 uM incubated for 4 hrs followed by irradiation with blue light for 5 mins in presence of CP94 by MTT assay; type: functional; settings: MDA-MB-435, light or radiation study, read-out: Survival
[3] = test system: MDA-MB-435; test: Phototoxicity in human MDA-MB-435 cells assessed as cell survival at 250 uM incubated for 4 hrs followed by irradiation with blue light for 5 mins by MTT assay; type: functional; settings: MDA-MB-435, light or radiation study, read-out: Survival
[4] = test system: MDA-MB-435; test: Phototoxicity in human MDA-MB-435 cells assessed as cell survival incubated for 4 hrs followed by irradiation with blue light for 5 mins in presence of CP94 by MTT assay; type: functional, cell-based
[5] = test system: KB; test: Phototoxicity in human KB cells assessed as cell survival at 200 uM incubated for 4 hrs followed by irradiation with blue light for 5 mins by MTT assay; type: functional; settings: light or radiation study, read-out: Survival
[6] = test system: MDA-MB-435; test: Increase in protoporphyrin 9 levels in human MDA-MB-435 cells at 50 to 250 uM after 5 hrs in presence of CP94 by fluorescence spectrometer plate reader method; type: functional, cell-based
[7] = test system: LNCaP; test: Increase in protoporphyrin 9 levels in human LNCAP cells at 200 uM after 3 hrs in presence of CP94 by fluorescence spectrometer plate reader method; type: functional
[8] = Phototoxicity in human BPH1 cells assessed as cell survival at 200 uM incubated for 4 hrs followed by irradiation with blue light for 5 mins by MTT assay; type: cell-based, BPH-1; settings: BPH1 cells, read-out: Survival
[9] = test system: A549; test: Dark toxicity in human A549 cells at 200 uM after 4 hrs by MTT assay; type: cell-based; settings: a549, 4 h
[10] = test system: A549; test: Increase in protoporphyrin 9 levels in human A549 cells at 200 uM after 6 hrs in presence of CP94 by fluorescence spectrometer plate reader method; type: functional
[11] = Phototoxicity in human BPH1 cells assessed as cell survival at 100 uM incubated for 4 hrs followed by irradiation with blue light for 5 mins in presence of CP94 by MTT assay; type: cell-based, BPH-1; settings: read-out: Survival
[12] = test system: MCF7; test: Phototoxicity in human MCF7 cells assessed as cell survival at 100 uM incubated for 4 hrs followed by irradiation with blue light for 5 mins in presence of CP94 by MTT assay; type: functional; settings: MCF7, light or radiation study, read-out: Survival
[13] = test system: LNCaP; test: Phototoxicity in human LNCAP cells assessed as cell survival at 200 uM incubated for 4 hrs followed by irradiation with blue light for 5 mins by MTT assay; type: functional; settings: light or radiation study, read-out: Survival
[14] = test system: HeLa; test: Phototoxicity in human HeLa cells assessed as cell survival incubated for 4 hrs followed by irradiation with blue light for 5 mins in presence of CP94 by MTT assay; type: functional, cell-based
[15] = test system: A549; test: Increase in protoporphyrin 9 levels in human A549 cells at 200 uM after 3 hrs in presence of CP94 by fluorescence spectrometer plate reader method; type: functional
[16] = test system: LNCaP; test: Dark toxicity in human LNCAP cells at 200 uM after 4 hrs by MTT assay; type: cell-based
[17] = test system: MCF7; test: Dark toxicity in human MCF7 cells at 200 uM after 4 hrs by MTT assay; type: cell-based; settings: mcf7, 4 h
[18] = test system: A549; test: Increase in protoporphyrin 9 levels in human A549 cells at 200 uM after 24 hrs in presence of CP94 by fluorescence spectrometer plate reader method; type: functional
[19] = test system: HeLa; test: Phototoxicity in human HeLa cells assessed as cell survival at 250 uM incubated for 4 hrs followed by irradiation with blue light for 5 mins in presence of CP94 by MTT assay; type: functional; settings: light or radiation study, read-out: Survival
[20] = test system: HeLa; test: Increase in protoporphyrin 9 levels in human HeLa cells at 50 to 250 uM after 5 hrs in presence of CP94 by fluorescence spectrometer plate reader method; type: functional, cell-based
[21] = test system: HeLa; test: Phototoxicity in human HeLa cells assessed as cell survival at 250 uM incubated for 4 hrs followed by irradiation with blue light for 5 mins by MTT assay; type: functional; settings: light or radiation study, read-out: Survival
[22] = test system: LNCaP; test: Increase in protoporphyrin 9 levels in human LNCAP cells at 200 uM after 24 hrs in presence of CP94 by fluorescence spectrometer plate reader method; type: functional
[23] = Dark toxicity in human BPH1 cells at 200 uM after 4 hrs by MTT assay; type: cell-based; settings: bph-1, 4 h
[24] = test system: LNCaP; test: Increase in protoporphyrin 9 levels in human LNCAP cells at 200 uM after 6 hrs in presence of CP94 by fluorescence spectrometer plate reader method; type: functional
[25] = test system: A549; test: Phototoxicity in human A549 cells assessed as cell survival at 100 uM incubated for 4 hrs followed by irradiation with blue light for 5 mins in presence of CP94 by MTT assay; type: functional; settings: A549, light or radiation study, read-out: Survival
[26] = test system: A549; test: Phototoxicity in human A549 cells assessed as cell survival at 200 uM incubated for 4 hrs followed by irradiation with blue light for 5 mins by MTT assay; type: functional; settings: A549, light or radiation study, read-out: Survival
[27] = Increase in protoporphyrin 9 levels in human BPH1 cells at 100 uM after 24 hrs by fluorescence spectrometer plate reader method relative to ALA; type: ADME, cell-based; settings: bph-1, 24 h
[28] = test system: LNCaP; test: Increase in protoporphyrin 9 levels in human LNCAP cells at 200 uM after 24 hrs by fluorescence spectrometer plate reader method; type: functional
[29] = test system: A549; test: Increase in protoporphyrin 9 levels in human A549 cells at 200 uM after 24 hrs by fluorescence spectrometer plate reader method relative to ALA and CP94; type: functional
[30] = test system: A549; test: Increase in protoporphyrin 9 levels in human A549 cells at 200 uM after 6 hrs by fluorescence spectrometer plate reader method relative to ALA and CP94; type: functional
[31] = test system: A549; test: Increase in protoporphyrin 9 levels in human A549 cells at 200 uM after 3 hrs by fluorescence spectrometer plate reader method relative to ALA and CP94; type: functional
[32] = Phototoxicity in human BPH1 cells assessed as cell survival at 100 uM incubated for 4 hrs followed by irradiation with blue light for 5 mins by MTT assay; type: cell-based, BPH-1; settings: read-out: Survival
[33] = test system: A549; test: Increase in protoporphyrin 9 levels in human A549 cells at 200 uM after 3 hrs by fluorescence spectrometer plate reader method; type: functional
[34] = test system: A549; test: Increase in protoporphyrin 9 levels in human A549 cells at 200 uM after 6 hrs by fluorescence spectrometer plate reader method; type: functional
[35] = test system: MDA-MB-435; test: Phototoxicity in human MDA-MB-435 cells assessed as cell survival incubated for 4 hrs followed by irradiation with blue light for 5 mins by MTT assay; type: functional, cell-based
[36] = test system: LNCaP; test: Increase in protoporphyrin 9 levels in human LNCAP cells at 100 uM after 24 hrs by fluorescence spectrometer plate reader method relative to ALA; type: functional
[37] = test system: KB; test: Increase in protoporphyrin 9 levels in human KB cells at 100 uM after 24 hrs by fluorescence spectrometer plate reader method relative to ALA; type: functional
[38] = test system: HeLa; test: Phototoxicity in human HeLa cells assessed as cell survival incubated for 4 hrs followed by irradiation with blue light for 5 mins by MTT assay; type: functional, cell-based
[39] = Increase in protoporphyrin 9 levels in human BPH1 cells at 200 uM after 3 to 24 hrs by fluorescence spectrometer plate reader method; type: ADME, cell-based; settings: bph-1, 200 µM
[40] = test system: MDA-MB-435; test: Increase in protoporphyrin 9 levels in human MDA-MB-435 cells after 5 hrs by fluorescence spectrometer plate reader method; type: functional, cell-based
[41] = test system: A549; test: Increase in protoporphyrin 9 levels in human A549 cells at 200 uM after 24 hrs by fluorescence spectrometer plate reader method; type: functional
[42] = test system: A549; test: Phototoxicity in human A549 cells assessed as cell survival at 100 uM incubated for 4 hrs followed by irradiation with blue light for 5 mins by MTT assay; type: functional; settings: A549, light or radiation study, read-out: Survival
[43] = test system: LNCaP; test: Phototoxicity in human LNCAP cells assessed as cell survival at 100 uM incubated for 4 hrs followed by irradiation with blue light for 5 mins by MTT assay; type: functional; settings: light or radiation study, read-out: Survival
[44] = test system: LNCaP; test: Increase in protoporphyrin 9 levels in human LNCAP cells at 200 uM after 6 hrs by fluorescence spectrometer plate reader method; type: functional
[45] = test system: A549; test: Increase in protoporphyrin 9 levels in human A549 cells at 100 uM after 24 hrs by fluorescence spectrometer plate reader method relative to ALA; type: functional
[46] = test system: MCF7; test: Phototoxicity in human MCF7 cells assessed as cell survival at 100 uM incubated for 4 hrs followed by irradiation with blue light for 5 mins by MTT assay; type: functional; settings: MCF7, light or radiation study, read-out: Survival
[47] = test system: KB; test: Increase in protoporphyrin 9 levels in human KB cells at 200 uM after 3 to 24 hrs by fluorescence spectrometer plate reader method; type: functional, cell-based
[48] = test system: LNCaP; test: Increase in protoporphyrin 9 levels in human LNCAP cells at 200 uM after 3 hrs by fluorescence spectrometer plate reader method; type: functional
[49] = test system: HeLa; test: Increase in protoporphyrin 9 levels in human HeLa cells after 5 hrs by fluorescence spectrometer plate reader method; type: functional, cell-based

SMILES: NCC(=O)CCC(=O)O [AMINOLEVULINIC ACID]
- viability at 100 µM [1]: 33.1%
- viability at 250 µM [2]: 28.9%
- viability at 250 µM [3]: 61.4%
- Activity [4]: Dose-dependent effect
- viability at 200 µM [5]: 52.6%
- Activity [6]: Active
- Flu intensity [7]: 17.3 a.u.
- viability at 4 h, 200 µM [8]: 70.8%
- Activity [9]: Non-toxic
- Flu intensity [10]: 42.1 a.u.
- viability at 4 h, 100 µM [11]: 81.9%
- viability at 100 µM [12]: 26.7%
- viability at 200 µM [13]: 61.9%
- Activity [14]: Dose-dependent effect
- Flu intensity [15]: 17.7 a.u.
- Activity [16]: Non-toxic
- Activity [17]: Non-toxic
- Flu intensity [18]: 77.8 a.u.
- viability at 250 µM [19]: 26.9%
- Activity [20]: Active
- viability at 250 µM [21]: 58.6%
- Flu intensity [22]: 46 a.u.
- Activity [23]: Non-toxic
- Flu intensity [24]: 31.3 a.u.
- viability at 100 µM [25]: 18.4%
- viability at 200 µM [26]: 54.7%

SMILES: COC(=O)CCC(=O)CNC(=O)[C@H](Cc1ccccc1)NC(=O)c1c(O)c(=O)ccn1C
- fold change (FC) [27]: 1.5
- viability at 250 µM [3]: 11.1%
- Flu intensity [28]: 58.4 a.u.
- viability at 200 µM [5]: 7.8%
- Flu intensity [29]: 1.2 a.u.
- Flu intensity [30]: 1.3 a.u.
- Flu intensity [31]: 1.6 a.u.
- viability at 4 h, 200 µM [8]: 12.4%
- Activity [9]: Non-toxic
- viability at 4 h, 100 µM [32]: 75.1%
- Flu intensity [33]: 27.7 a.u.
- Flu intensity [34]: 52.9 a.u.
- Activity [35]: Dose-dependent effect
- viability at 200 µM [13]: 13.5%
- fold change (FC) [36]: 4
- Activity [16]: Non-toxic
- fold change (FC) [37]: 2.9
- Activity [17]: Non-toxic
- Activity [38]: Dose-dependent effect
- Activity [39]: Non-toxic
- Activity [40]: Dose-dependent effect
- Flu intensity [41]: 94.6 a.u.
- viability at 250 µM [21]: 15.3%
- viability at 100 µM [42]: 14.7%
- viability at 100 µM [43]: 26.3%
- Flu intensity [44]: 47.1 a.u.
- Activity [23]: Non-toxic
- fold change (FC) [45]: 3.1
- viability at 200 µM [26]: 16.3%
- viability at 100 µM [46]: 21.1%
- Activity [47]: Active
- Flu intensity [48]: 25.3 a.u.
- Activity [49]: Dose-dependent effect
